Measurements published in US20150238519A1, “THERAPY FOR DRUG RESISTANT CANCER” (University of Central Florida Research Foundation, Inc., priority 2014, published 2015).

What was measured:
[1] = test system: mir-17, mir-18a, mir-18b, mir-20a and mir-106a; assay: Genome-wide miRNA array profiling of LNCaP-104S cells upon CDX treatment; format: cell-based; settings: CDX (5 μM) treatment and androgen blockade (CSFBS), vs untreated LNCaP-104S
Excerpt: We used genome-wide miRNA array (1113 unique primers System Biosciences) profiling approach to dentify specific miRNAs that compensate for androgen ablation. Androgen-dependent (AD) subline of LNCaP cells LNCaP-104S (-104S) and its androgen independent (AI) derivative LNCaP-104R1 (-104R1) were used for monitoring differential expression of miRNAs upon treatment with casodex (CDX). LNCaP-104S cells are CDX-sensitive, whereas LNCaP-104R1 cells are not despite these cells express androgen receptor (AR) at a basal level higher than LNCaP-104S cells. LNCaP-104S cells require DHT for maintaining their AD status but when treated with CDX for 3 weeks in CSFBS (charcoal-stripped FBS), CDX insensitive colonies develop that are independent of androgen (CDXR). We profiled miRNA expression in −104S cells untreated and at 1 wk and 3 wks of treatment with CDX (5 μM) and CSFBS (Table 1). We also compared miRNA expression in untreated −104R1 cells. The ΔΔCT values were obtained for each sample (treatment condition) using LNCaP-104S untreated as the control.

LNCaP-104R1 cells = settings: androgen independent LNCaP-104R1; cited from earlier work
Frabin (FGD4) = assay: Western blotting of Frabin in extracts of CDX treated LNCaP-104S cells; format: cell-based; settings: western blot
Excerpt: FIG. 2. Expression of FGD4 in untreated LNCap-104R1, LNCaP-104S and LNCaP-104S cells treated with CDX and androgen withdrawal. FIG. 2 A: Western blot of the whole cell extracts. FIG. 2 B: Densitometric analysis of the expression. Data represents the average of 3 separate analyses.
Identification of targets regulated by our candidate miRNAs by MiRDB and TargetScan database search reveled a protein Frabin (FGD4), a GEF that is potentially regulated by mir-17, -21a and -106a and received higher target scores in both searches.

LNCaP-104S cells = settings: androgen-dependent LNCaP-104S; cited from earlier work

In the case of `CC(O)(CS(=O)(=O)c1ccc(F)cc1)C(=O)Nc1ccc(C#N)c(C(F)(F)F)c1` (stereo not shown) [CDX], the “down regulation of mir-17, mir-18a, mir-18b, mir-20a and mir-106a” value [1] is listed as 9-10 fold, the CDX sensitivity (LNCaP-104R1 cells) is listed as “are not” and the “increase in expression of Frabin” value (Frabin (FGD4)) is listed as > 2.0 fold. The CDX sensitivity (LNCaP-104S cells) was “CDX-sensitive”.
